Data published in patent US10966978B2, “Dose and regimen for HDM2-p53 interaction inhibitors” (Novartis AG, priority 2016, dated 2021).
Read-outs that look alike come from different tables or passages of the source.

Tested on: patients with advanced TP53 wild-type (WT) leukemias

## COc1ncc(-c2nc3c(n2C(C)C)[C@H](c2ccc(Cl)cc2)N(c2cc(Cl)cn(C)c2=O)C3=O)c(OC)n1 [HDM201, (S)-5-(5-Chloro-1-methyl-2-oxo-1,2-dihydro-pyridin-3-yl)-6-(4-chloro-phenyl)-2-(2,4-dimethoxy-pyrimidin-5-yl)-1-isopropyl-5,6-dihydro-1H-pyrrolo[3,4-d]imidazol-4-one]
Regimen 2A N = 7, All Grades
  AE: Blood Creatinine Increased: 1 (14.3) n (%)
  AE: Blood Phosphorus Increased: 0 n (%)
  AE: Blood Uric Acid Increased: 0 n (%)
  AE: Bone Marrow Failure: 1 (14.3) n (%)
  AE: C-Reactive Protein Increased: 1 (14.3) n (%)
  AE: Cardiac Failure: 0 n (%)
  AE: Cellulitis: 0 n (%)
  AE: Chronic Graft Versus Host Disease: 0 n (%)
  AE: Conjunctival Haemorrhage: 0 n (%)
  AE: Cough: 0 n (%)
  AE: Cystitis Viral: 0 n (%)
  AE: Cytomegalovirus Infection: 1 (14.3) n (%)
  AE: Decreased Appetite: 1 (14.3) n (%)
  AE: Diarrhoea: 0 n (%)
  AE: Dyspepsia: 1 (14.3) n (%)
  AE: Dyspnoea: 0 n (%)
  AE: Epistaxis: 0 n (%)
  AE: Fatigue: 0 n (%)
  AE: Febrile Neutropenia: 2 (28.6) n (%)
  AE: Gamma-Glutamyltransferase Increased: 0 n (%)
  AE: General Physical Health Deterioration: 0 n (%)
  AE: Gingival Bleeding: 0 n (%)
  AE: Graft Versus Host Disease: 0 n (%)
  AE: Haemoglobin Decreased: 0 n (%)
  AE: Headache: 0 n (%)
  AE: Hyperbilirubinaemia: 1 (14.3) n (%)
  AE: Hyperglycaemia: 0 n (%)
  AE: Hyperkalaemia: 0 n (%)
  AE: Hyperphosphataemia: 0 n (%)
  AE: Hyperuricaemia: 1 (14.3) n (%)
  AE: Hypoalbuminaemia: 0 n (%)
  AE: Hypocalcaemia: 0 n (%)
  AE: Hypokalaemia: 0 n (%)
  AE: Hypomagnesaemia: 0 n (%)
  AE: Hyponatraemia: 0 n (%)
  AE: Hypophosphataemia: 0 n (%)
  AE: Hypotension: 0 n (%)
  AE: Infection: 0 n (%)
  AE: Infective Glossitis: 0 n (%)
  AE: Iron Overload: 0 n (%)
  AE: Leukopenia: 0 n (%)
  AE: Lip Oedema: 0 n (%)
  AE: Lipase Increased: 0 n (%)
  AE: Macular Oedema: 0 n (%)
  AE: Malaise: 1 (14.3) n (%)
  AE: Mouth Haemorrhage: 0 n (%)
  AE: Nausea: 3 (42.9) n (%)
  AE: Neutropenia/Neutrophil Count Decreased: 1 (14.3) n (%)
  AE: Oedema: 0 n (%)
  AE: Oedema Peripheral: 0 n (%)
  AE: Oral Disorder: 0 n (%)
  AE: Pain In Extremity: 0 n (%)
  AE: Pancytopenia: 0 n (%)
  AE: Pneumonia: 0 n (%)
  AE: Pollakiuria: 0 n (%)
  AE: Pyrexia: 1 (14.3) n (%)
  AE: Rash: 0 n (%)
  AE: Rash Erythematous: 0 n (%)
  AE: Rash Papular: 0 n (%)
  AE: Rectal Haemorrhage: 0 n (%)
  AE: Renal Failure: 0 n (%)
  AE: Skin Exfoliation: 0 n (%)
  AE: Stomatitis: 0 n (%)
  AE: Subarachnoid Haemorrhage: 0 n (%)
  AE: Thrombocytopenia/Platelet Count Decreased: 2 (28.6) n (%)
  AE: Total: 5 (71.4) n (%)
  AE: Tumour Lysis Syndrome: 1 (14.3) n (%)
  AE: Vomiting: 1 (14.3) n (%)
  AE: Weight Decreased: 0 n (%)
  AE: White Blood Cell Count Decreased: 1 (14.3) n (%)
Regimen 2A N = 7, Grade 3/4
  AE: Abdominal Discomfort: 0 n (%)
  AE: Abdominal Pain: 0 n (%)
  AE: Abdominal Pain Upper: 0 n (%)
  AE: Acute Kidney Injury: 0 n (%)
  AE: Amylase Increased: 0 n (%)
  AE: Anaemia: 2 (28.6) n (%)
  AE: Arthralgia: 0 n (%)
  AE: Asthenia: 0 n (%)
  AE: Atrial Fibrillation: 0 n (%)
  AE: Atypical Pneumonia: 0 n (%)
  AE: Balanitis Candida: 0 n (%)
  AE: Blood Alkaline Phosphatase Increased: 0 n (%)
  AE: Blood Bilirubin Increased: 0 n (%)
  AE: Blood Creatinine Increased: 0 n (%)
  AE: Blood Phosphorus Increased: 0 n (%)
  AE: Blood Uric Acid Increased: 0 n (%)
  AE: Bone Marrow Failure: 1 (14.3) n (%)
  AE: C-Reactive Protein Increased: 1 (14.3) n (%)
  AE: Cardiac Failure: 0 n (%)
  AE: Cellulitis: 0 n (%)
  AE: Chronic Graft Versus Host Disease: 0 n (%)
  AE: Conjunctival Haemorrhage: 0 n (%)
  AE: Cough: 0 n (%)
  AE: Cystitis Viral: 0 n (%)
  AE: Cytomegalovirus Infection: 0 n (%)
  AE: Decreased Appetite: 0 n (%)
  AE: Diarrhoea: 0 n (%)
  AE: Dyspepsia: 0 n (%)
  AE: Dyspnoea: 0 n (%)
  AE: Epistaxis: 0 n (%)
  AE: Fatigue: 0 n (%)
  AE: Febrile Neutropenia: 2 (28.6) n (%)
  AE: Gamma-Glutamyltransferase Increased: 0 n (%)
  AE: General Physical Health Deterioration: 0 n (%)
  AE: Gingival Bleeding: 0 n (%)
  AE: Graft Versus Host Disease: 0 n (%)
